Results published in patent publication US8809542B2, “Salts of benzimidazole compound and use thereof” (Takeda Pharmaceutical Company Limited, priority 2000, dated 2014).

Assay: Storage stability of the crystal in a hermetically sealed glass bottle, content (residual percentage) by HPLC
Type: physicochemical
Settings: for description: appearance
Protocol: The crystal of a sodium salt obtained in Example 1 (about 5 mg) was served into a colorless glass bottle, the bottle was hermetically sealed by a stopper, and stability of the crystal during storage at 60° C. for 4 weeks was examined. 25 ml of a sample (concentration: about 0.2 mg/ml) was prepared by dissolving the sample after completion of storage in a mobile phase. The sample solution along with a standard solution prepared by using the initial lot (a frozen sample stored for the same term), was analyzed under the HPLC conditions shown below, and the content (residual percentage) was calculated from the peak area obtained.
[HPLC Analytical Conditions]
Detection wavelength: UV 275 nm
Mobile phase: Fluid prepared by adding phosphoric acid to water/acetonitrile/triethylamine (63:37:1) to adjust pH 7
Column temperature: 40° C.
Sample injection volume: 10 μL

## Cc1c(OCC(F)(F)F)ccnc1C[S@@+]([O-])c1nc2ccccc2[n-]1.[Na+] [Example 1, sodium salt of (R)-2-[[[3-methyl-4-(2,2,2-trifluoroethoxy)-2-pyridinyl]methyl]sulfinyl]-1H-benzimidazole]
freeze-storage for the same term (initial lot used as standard)
  content (residual percentage): [100] %
freeze-storage
  description: nearly white
Solid crystal stored at 60° C. (airtight) for 4 weeks, HPLC peak area vs frozen initial lot, listed as crystal of Ex. 1
  content (residual percentage): 99.2%
Solid crystal stored at 60° C. (airtight) for 4 weeks, HPLC peak area vs frozen initial lot, listed as crystal of a sodium salt of R(+)-lansoprazole
  content (residual percentage): exceeding 99%
Solid crystal stored at 60° C. (airtight) for 4 weeks
  description: nearly white
